In patent US20120129870A1, “PIPERAZINYL DERIVATIVES USEFUL AS MODULATORS OF THE NEUROPEPTIDE Y2 RECEPTOR” (priority 2007, published 2012):

Key:
NPY Y2 receptor [1] = biological target: T1, NPY Y2 receptor (Homo sapiens, UniProt P49146); assay: Neuropeptide Y2 pKB assay (FLIPR, KAN-Ts cells stably expressing chimeric G proteins); type: cell-based; conditions: apparent pKB, modified Cheng-Prusoff correction
T1 sequence (P49146 1-381): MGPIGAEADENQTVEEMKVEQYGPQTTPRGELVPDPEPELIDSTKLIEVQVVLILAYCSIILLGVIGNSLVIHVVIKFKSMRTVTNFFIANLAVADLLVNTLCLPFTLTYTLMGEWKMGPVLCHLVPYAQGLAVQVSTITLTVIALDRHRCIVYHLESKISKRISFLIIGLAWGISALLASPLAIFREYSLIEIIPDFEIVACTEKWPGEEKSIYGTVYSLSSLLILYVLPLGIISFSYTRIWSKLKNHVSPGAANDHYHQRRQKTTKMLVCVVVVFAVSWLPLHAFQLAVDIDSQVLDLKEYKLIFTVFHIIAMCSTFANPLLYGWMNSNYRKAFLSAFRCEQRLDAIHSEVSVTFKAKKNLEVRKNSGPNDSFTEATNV
Description: The assay was performed using the fluorimetric imaging plate reader (FLIPR) format as described in Dautzenberg, F. M., Biochemical Pharmacology 2005, 69, 1493.
KAN-Ts cells stably expressing chimeric G proteins were seeded at a density of 100,000 cells into poly-d-lysine coated 384-well blackwall, clear-bottom microtiter plates (Corning, N.Y.). One day later, the medium was removed and 50 μl loading medium DMEM high glucose, without serum, supplemented with 10 mM HEPES-acid, 0.1% BSA, 5 mM probenecid and 2 μM Fluo-3AM was added. Cells were loaded for 1 h at 37° C., washed twice with 50 μl assay buffer (5 mM HEPES-acid, 140 mM NaCl, 1 mM MgCl2, 5 mM KCl, 10 mM glucose) and then 30 μl assay buffer was added. Cells were further pre-incubated at room temperature before adding agonists or agonists plus antagonists in 20 μl assay buffer and then measured on a T-channel fluorometric imaging plate reader (FLIPR, Molecular Devices, Sunnyvale, Calif.). Antagonistic potency values were converted to apparent pKB values using a modified Cheng-Prusoff correction. Apparent pKB was calculated as pKB=−log IC50/1+[conc agonist/EC50].

NPY Y2 receptor [2] = biological target: T1, NPY Y2 receptor; assay: Neuropeptide Y2 radioligand binding assay ([125I]PYY, KAN-Ts membranes); parameters: endogenous in cells; host or cells: KAN-Ts cells (membrane preparation); conditions: KAN-Ts membranes endogenously expressing Y2, [125I]PYY (80 pM), 1 h at rt
Procedure, shortened: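 Membranes from KAN-Ts cells with endogenous Y2 receptors, incubated with 80 pM [125I]PYY ± compound for 1 h at rt in HEPES/NaCl/CaCl2/MgSO4 buffer, then filtered and counted. Nonspecific binding defined with […]. IC50 from sigmoidal fit; Ki = IC50/(1+C/KD).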

Row | Kb (NPY Y2 receptor [1]) | IC50 (NPY Y2 receptor [2]) | SMILES
1 | 50.1 nM | 39 nM | CCC(CC)C(=O)Nc1ccc(N2CCN(C(c3ccccc3)c3nc4ccccc4s3)CC2)c(C#N)c1 (stereo not shown) [Compound 169, N-{4-[4-(Benzothiazol-2-yl-phenyl-methyl)-piperazin-1-yl]-3-cyano-phenyl}-2-ethyl-butyramide]
2 | 79.4 nM | 7 nM | CCC(CC)C(=O)Nc1ccc(N2CCN(C(c3ccccc3)c3nc4ccccc4o3)CC2)c(C#N)c1 (stereo not shown) [Compound 166, N-{4-[4-(Benzooxazol-2-yl-phenyl-methyl)-piperazin-1-yl]-3-cyano-phenyl}-2-ethyl-butyramide]
